Data set [1] is described as follows: Brine shrimp lethality bioassay. The conditions noted are these: Artemia salina (brine shrimp) nauplii, in vivo, other: exposure in sea water containing the compound, 24 h incubation, regression analysis, read-out: LC50 (median lethal concentration). The data set is classed as in vivo, Artemia salina. Here is the method:
(§1) The cytotoxicities of synthesized hydrazones were recorded by employing an in vitro brine shrimp lethality bioassay technique. The eggs of Artemia salina (brine shrimp) were allowed to incubate at 30 °C for 48 h under a light and dark cycle using artificial sea water before subjecting them to the sample solutions. The hatched larvae (nauplii) were collected with using a Pasteur pipette and were transferred to freshly prepared sea water (commercial salt and double-distilled water). The stock solutions of each compound were prepared at 500 µg/mL concentration in DMSO and sea water at 1:1, and further serial dilutions of 25, 50, 100, 200 and 300 µg/mL were prepared using sea water. Using a 2mL volume from each dilution, sea water containing 10 nauplii was added to a test tube and incubated for 24 h. A solvent mixture with nauplii containing no test compound was used as the control. After due time, the number of nauplii that survived was determined using a magnifying glass. The experiment was performed in triplicate and the median lethal concentration (LC50) ± SEM was calculated using regression analysis.

Data set [2] relates to S. aureus ATCC 25923. As to the kind of experiment: Tetrazolium (MTT) microplate assay of minimum inhibitory concentration. The data set is classed as cell-based. The conditions noted are these: Staphylococcus aureus, ATCC25923. How it is done: (§2) All the synthesized compounds were screened for antibacterial activities using minimum inhibitory concentrations (MIC) and zone of inhibitions against Gram (+)and Gram (−) bacterial strains. ATCC strains of the test microorganism selected for antibacterial assay were Gram-positive bacteria; Staphylococcus aureus ATCC 25923, Bacillus subtilus ATCC 11774, and Gram-negative bacteria; Escherichia coli ATCC 10536. The bacterial strains’ stock cultures were kept in Nutrient agar (Oxoid, UK) at 4 °C and inocula were prepared by transferring several single colonies of microbes to a sterile Mueller Hinton broth. The bacterial cell suspension was mixed until homogeneity to give a final density of 5 × 10^5 cfu/mL
(§3) The minimum inhibitory concentrations of test microorganisms and reference material were determined using the tetrazolium microplate assay method. The assay was performed using a 96-well clear microtiter plate. Freshly harvested bacterial cell and fungal cell suspensions were seeded at 5 × 10^5 cfu/mL in each well of the 96-well plate. Different concentrations, 500 to 10 µg/mL, of the test compounds were diluted in series with Muller–Hinton broth. A volume of 200 µL of each concentration was added in triplicate to the wells and the plates were then incubated for 18–24 h at 37 °C ± 0.5. After incubation, in each well, 50 µL of 3-(4, 5-dimethylthiazol-2-yl)-2, 5-diphenyltetrazolium bromide MTT, having a concentration of 0.2 mg/mL, was added and the plate was incubated at 37 °C for 30 min. An appropriate solvent blank (DMSO) was included as the negative control and the bacterial suspension was included as the positive control. The absorbance was measured at 570 nm with a reference wavelength of 650 nm by adding DMSO using a spectrophotometer and the percentage reduction of the dye (indicating the bacterial growth inhibition) was calculated.

Data set [3] deals with B. subtilis ATCC 11774. Described as above. In kind it is cell-based. To be noted: Bacillus subtilis, ATCC11774. Here is the method:
as §2, §3

For data set [4], the system named is E. coli ATCC 10536. Described as above. The data set is classed as cell-based. The conditions noted are these: Escherichia coli, ATCC10536. How it is done: as §2, §3
Data set [5] has as its system Bacillus subtilis ATCC 11774. Put plainly: Paper disc diffusion, zone of inhibition. The data set is classed as cell-based. The conditions noted are these: disc with 1000 µg mL−1 in DMSO, 37 °C; for zone of inhibition at 1000 µg/mL: Bacillus subtilis, ATCC11774, 24 h. Here is the method: as §2
(§4) Preliminary screenings of synthesized compounds were conducted on agar plates using the disc diffusion method. The plates were prepared using Mueller–Hinton agar following the autoclave process (121 °C for 30 min). After cooling, the plates were inoculated with the suspension of microorganisms (S. aureus, B. subtilis and E. coli). The paper discs impregnated with the test compounds (1000 µg mL^−1 in dimethyl sulfoxide) were placed on the solidified medium and incubated at 37 °C for 24 hours before recording the zone of inhibition in millimeters.

Data set [6] concerns Staphylococcus aureus ATCC 25923. As to the kind of experiment: Paper disc diffusion, zone of inhibition. In kind it is cell-based. The conditions noted are these: Staphylococcus aureus, ATCC25923, 24 h, disc with 1000 µg mL−1 in DMSO, 37 °C. Here is the method: as §2, §4
In general terms: Agar diffusion results depend on both activity and mobility in agar.

The subject of data set [7] is Escherichia coli ATCC 10536. As to the kind of experiment: Paper disc diffusion, zone of inhibition. To be noted: ATCC10536, disc with 1000 µg mL−1 in DMSO, 37 °C, 24 h. In kind it is cell-based. Here is the method: as §2, §4
Data set [8] relates to Artemia salina (brine shrimp) nauplii. As to the kind of experiment: Brine shrimp lethality bioassay. In kind it is in vivo. To be noted: 24 h, concentration not given. How it is done: as §1

The structures appear in SMILES notation. ≈ marks a conversion by molar mass, not a printed value.

One may read the inhibition as the percentage by which the read-out fell short of the control. The low end stands for a weak effect, the high end for a strong effect. Usually zone of inhibition stands for the size of the clear area around the sample on an inoculated plate. Take `COc1cc(/C=N/NC(=O)c2ccncc2)ccc1OCC=C(C)C` [NH3, (E)-N′-(3-Methoxy-4-((3-methylbut-2-en-1-yl)oxy)benzylidene)isonicotinohydrazide]: the LC50 at 24 h in data set [1] stood at 240 µg/mL (≈ 707 µM). For the same compound, the inhibition at 25 µg/mL in data set [2] (25 µg/mL) came to 24 ± 0.7%; in data set [3] (25 µg/mL), 12 ± 0.4%. Also, the inhibition at 50 µg/mL in data set [2] came out at 35 ± 1.2%; in data set [3], 20 ± 0.7%; in data set [4], 36 ± 0.5%. The results for the inhibition at 100 µg/mL in data set [2], in data set [3] and in data set [4] were 44 ± 2%, 28 ± 0.8% and 50 ± 0.5%, respectively. Besides, the inhibition at 200 µg/mL was 60 ± 1.5% in data set [2], 53 ± 0.7% in data set [3] and 65 ± 0.2% in data set [4]. The values for the inhibition at 300 µg/mL in data set [2], in data set [3] and in data set [4] were 78 ± 1%, 74 ± 0.9% and 85 ± 1.2%, respectively. Besides, the results for the inhibition at 400 µg/mL in data set [2] and in data set [3] (400 µg/mL) were 89 ± 1.5% and 84 ± 0.9%, respectively. Besides, the zone of inhibition at 1000 µg/mL amounted to 23 mm in data set [5], 24 mm in data set [6] and 33 mm in data set [7]. In data set [5] (24 h), the “Zone of Inhibition” value stood at 22 mm.
`CCCOc1ccc(/C=N/NC(=O)c2ccncc2)cc1` [NH6, (E)-N′-(4-Propoxybenzylidene) Isonicotinohydrazide]: the minimum survival percentage in data set [8] was 32.44 ± 2.0%. For the same compound, the LC50 at 24 h in data set [1] was 162 µg/mL (≈ 574 µM). Moreover, in data set [2], testing at 50 µg/mL gave an inhibition of 5.5 ± 0.5%, testing at 100 µg/mL gave an inhibition of 25 ± 0.5%, the inhibition at 200 µg/mL was found to be 52 ± 1.6% and 300 µg/mL produced 72 ± 1.2% inhibition. The compound further gave an inhibition at 400 µg/mL in data set [2] of 80 ± 1%. Besides, in data set [3], the inhibition at 50 µg/mL was 10 ± 0.6%, at 100 µg/mL the inhibition was 23 ± 0.7%, 200 µg/mL produced 52 ± 0.8% inhibition and testing at 300 µg/mL gave an inhibition of 70 ± 1.1%. Further, testing at 25 µg/mL in data set [4] (25 µg/mL) gave an inhibition of 5 ± 0.2%. In data set [4], this compound returned an inhibition at 50 µg/mL of 14 ± 0.5%, an inhibition at 100 µg/mL of 28 ± 0.5%, an inhibition at 200 µg/mL of 50 ± 0.7% and an inhibition at 300 µg/mL of 73 ± 0.7%. In addition, the zone of inhibition at 1000 µg/mL in data set [5] worked out at 23 mm. This compound had a zone of inhibition at 1000 µg/mL in data set [6] of 17 mm. For the same compound, in data set [7], the zone of inhibition at 1000 µg/mL amounted to 22 mm.

Source of the values: publication PMC9571093, “Synthesis and Characterization of Novel Hydrazone Derivatives of Isonicotinic Hydrazide and Their Evaluation for Antibacterial and Cytotoxic Potential” (Molecules, 2022).
